Measurements from patent publication US10138254B2, “Bicyclic compounds as pest control agents” (BAYER CROPSCIENCE AKTIENGESELLSCHAFT, priority 2014, dated 2018).
Read-outs that look alike come from different tables or passages of the source.

Columns and labels:
[1] = test system: green peach aphid (Myzus persicae); assay: Myzus persicae spray test (bell pepper plants); assay type: in vivo; details: application rate 4 ppm, after 6 days, 100% = all aphids killed
Description: Myzus persicae—Spray Test Solvent: 7 parts by weight of dimethylformamide Emulsifier: alkylaryl polyglycol ether To produce a suitable active ingredient formulation, 1 part by weight of active ingredient is dissolved with the specified parts by weight of solvent and made up with water containing an emulsifier concentration of 1000 ppm until the desired concentration is attained. To produce further test concentrations, the formulation is diluted with emulsifier-containing water. If the addition of ammonium salts or/and penetrants is required, these are each added in a concentration of 1000 ppm to the formulation solution. Bell pepper plants (Capsicum annuum) severely infested with the green peach aphid (Myzus persicae) are treated by spraying with the active ingredient formulation in the desired concentration. After 6 days, the kill in % is determined. 100% means that all of the aphids have been killed; 0% means that none of the aphids have been killed.

[2] = log P by HPLC on reversed-phase (C18) columns, OECD Guideline 117; assay type: physicochemical; details: reversed-phase (C18) HPLC column
Description: The log P values were determined in accordance with OECD Guideline 117 (EC Directive 92/69/EEC) by HPLC (high-performance liquid chromatography) using reversed-phase (RP) columns (C18), by the following methods: [a] The LC-MS determination in the acidic range is carried out at pH 2.7 with 0.1% aqueous formic acid and acetonitrile (contains 0.1% formic acid) as eluents; linear gradient from 10% acetonitrile to 95% acetonitrile. [b] LC-MS determination in the neutral range is effected at pH 7.8 with 0.001 molar aqueous ammonium hydrogencarbonate solution and acetonitrile as eluents; linear gradient from 10% acetonitrile to 95% acetonitrile. Calibration is carried out using unbranched alkan-2-ones (having 3 to 16 carbon atoms) with known log P values (log P values determined on the basis of the retention times by linear interpolation between two successive alkanones).

[3] = test system: larvae of the mustard beetle (Phaedon cochleariae); assay: Phaedon cochleariae spray test (Chinese cabbage leaf discs); assay type: in vivo; details: application rate 500 g/ha, after 7 days, 100% = all beetle larvae killed
Description: Phaedon cochleariae—Spray Test
Solvent: 78.0 parts by weight of acetone • • 1.5 parts by weight of dimethylformamide
Emulsifier: alkylaryl polyglycol ether
To produce a suitable active ingredient formulation, 1 part by weight of active ingredient is dissolved with the specified parts by weight of solvent and made up with water containing an emulsifier concentration of 1000 ppm until the desired concentration is attained. To produce further test concentrations, the formulation is diluted with emulsifier-containing water.
After 7 days, the efficacy in % is determined. 100% means that all the beetle larvae have been killed; 0% means that no beetle larvae have been killed.

[4] = test system: green peach aphid (Myzus persicae); assay: Myzus persicae spray test (Chinese cabbage leaf discs); assay type: in vivo; details: Myzus persicae, foliar, 144 h, application rate 500 g/ha, after 6 days, 100% = all aphids killed, read-out: efficacy
Description: Myzus persicae—Spray Test Solvent: 78 parts by weight of acetone • • 1.5 parts by weight of dimethylformamide Emulsifier: alkylaryl polyglycol ether To produce a suitable active ingredient formulation, 1 part by weight of active ingredient is dissolved with the specified parts by weight of solvent and made up with water containing an emulsifier concentration of 1000 ppm until the desired concentration is attained. To produce further test concentrations, the formulation is diluted with emulsifier-containing water. Discs of Chinese cabbage leaves (Brassica pekinensis) infested by all stages of the green peach aphid (Myzus persicae) are sprayed with an active ingredient formulation of the desired concentration. After 6 days, the efficacy in % is determined. 100% means that all the aphids have been killed; 0% means that no aphids have been killed.

[5] = acidic range, pH 2.7, 0.1% aqueous formic acid and acetonitrile, read-out: LogP[a]
[6] = neutral range, pH 7.8, 0.001 molar aqueous ammonium hydrogencarbonate and acetonitrile, read-out: logP[b]

Structure (SMILES) | efficacy (kill) [1] [%] | chromatographic logP [2, 5] | chromatographic logP [2, 6] | efficacy [3] [%] | pest or weed control at 500 g/ha [4] [%]
Cc1cc(C)c([S+]([O-])CC(F)(F)F)cc1-c1cnc2nc(-c3ccc[n+]([O-])c3)sc2c1 (stereo not shown) [Example 21] | 100 | 1.91 | 1.86 |  | 
Cn1c(=O)cnn(-c2cnc3nc(-c4cccnc4)sc3c2)c1=O [Example 39, 4-Methyl-2-[2-(pyridin-3-yl)[1,3]thiazolo[4,5-b]pyridin-6-yl]-1,2,4-triazine-3,5(2H,4H)-dione] |  | 1.29 | 1.36 | 83 | 90
